Measurements reported in patent EP0593831A1, “Long-chain fatty alcohols as neurotrophic and memory improving agents” (MEDAFOR, priority 1992, dated 1994).

Test system: neurones de cortex
Assay: Survival of cortex neurons in primary culture
Type: cell-based, rat
Settings: 10⁻⁵M; after 10 days of culture; versus control cells; p < 0,02, Student t (figure 3)
From the text: Les dérivés de l'invention ont été testés sur des neurones du système nerveux central en culture primaire. Les cultures sont préparées à partir de cerveaux d'embryons de rats. Les neurones proviennent de l'une des trois zones cérébrales suivantes: le cortex à partir d'embryons de 14 jours, l'hippocampe et le septum à partir d'embryons de 18 jours. Les cellules sont ensemencées à faible densité (10⁵ cellules/lamelle) sur des lamelles prétraitées avec de la poly-L-lysine. Les cellules sont maintenues dans un milieu de culture chimiquement défini. Les dérivés testés sont ajoutés le premier jour de la mise en culture des cellules à des doses variant de 10⁻⁹ M à 10⁻⁴ M. Le changement de milieu se fait tous les quatre jours avec addition des composés à tester.
On suit la survie des neurones en culture à l'aide d'un microscope en contraste de phase. De manière générale, les cellules témoins dégénèrent après 11 jours de culture alors que le nombre de cellules survivantes est significativement élevé dans les cultures traitées avec les dérivés de l'invention.
A titre d'exemple, l'effet du composé A₁, sur la survie des neurones de cortex est représenté sur la figure 3. Ce graphique représente le nombre de neurones survivants après 10 jours de culture.

CC1=C(CCCCCCCCCCCO)C(C)(C)CCC1 [composé A₁]
nombre de neurones survivants: significativement augmenté
